Data reported in paper PMC8348142, “Antimicrobial Peptide Modifications against Clinically Isolated Antibiotic-Resistant Salmonella” (Molecules, 2021).
Marks after values point to notes of the source that are not given here. Ends that are not written are not given here.

Key:
[1] = Overall hydrophobicity from RP-HPLC data (percent acetonitrile at elution); format: physicochemical; conditions: percentage of acetonitrile at which the peptide eluted, more % ACN = more hydrophobic
[2] = test system: clinical Salmonella isolates; test: MBC, drop plate method, and MBC/MIC mode of action; format: cell-based; conditions: for MBC: drop plate on MHA from MIC plate, 37 °C, 18 h, thrice
Description: (§1) All 12 isolates of Salmonella used in this study were clinical isolates and anonymous left-overs from laboratory diagnoses. They were maintained in a 20% glycerol (Sigma-Aldrich) stock at −80 °C and further cultured on Mueller-Hinton agar (MHA, Oxoid, Hampshire, UK) at 37 °C for 18 h to obtain single colonies for antimicrobial assays. This study was approved by the Ethics Committee of the Faculty of Tropical Medicine (Mahidol University, Bangkok, Thailand; MUTM-EXMPT 2017-007).
The plate derived from the MIC assay was immediately tested for the MBC using a drop plate method. A volume of 10 µL of the culture from individual wells at MIC, 2MIC, and 4MIC was dropped on MHA plates. […] The experiment was thrice performed.
In order to determine whether the peptides have bacteriostatic or bactericidal activity, a ratio of MBC to MIC (MBC/MIC) was applied. The ratio >4 was indicative of bacteriostatic peptide, and ≤4 was inferred as bactericidal peptide.

sheep red blood cells = test: Hemolytic activity assay; format: cell-based; conditions: for percent hemolysis: 2% sRBCs in PBS, 37 °C, 1 h, OD540, triplicate mean
Description: The peptide toxicity to the mammalian system was screened based on the hemolytic test by measuring the hemoglobin released from ruptured red blood cells (RBCs). In this study, sheep RBCs (sRBCs) were employed. They were thrice washed and prepared as a suspension in phosphate-buffered saline (PBS, Oxoid). A suspension of 2% sRBCs was incubated with 2-fold serial dilutions of peptide (final concentrations; 256 to 1 µM in a total volume of 200 µL) at 37 °C for 1 h. The solutions of 0.1% (final concentration) Triton X-100 (Sigma-Aldrich) and PBS containing the peptide solvent were used instead of the peptides as the controls of hemolysis at 100% and 0%, respectively. Thereafter, the post-incubated suspensions were centrifuged (1000× g, 3 min) to pelletize residual sRBCs. The supernatants were then transferred into a flat-bottom PS 96-well plate and were measured the absorbance at 540 nm (OD540) by a microplate reader. The test was conducted in triplicate and the mean OD540 was used to calculate the hemolysis (%) as; ((OD540 (peptide) − OD540 (PBS + peptide solvent))/(OD540 (0.1% Triton X-100) − OD540 (PBS + peptide solvent))) × 100. The hemolytic concentration 50 (HC50), a concentration inducing 50% hemolysis, was determined.
The GraphPad Prism version 7.00 (GraphPad Software, La Jolla, CA, USA) was applied for all statistical analyses and data visualizations. Replicate quantitative results were calculated and shown as mean ± SD, unless otherwise specified. The HC50 values were determined using nonlinear regression analysis. The paired t-test and repeated measures one-way ANOVA with Tukey’s multiple comparison test were applied to compare between 2 groups and among 3 or more groups, respectively. The comparisons were considered as a statistically significant difference when a p-value < 0.05.

[3] = test system: clinical Salmonella isolates; test: MIC, broth microdilution; format: cell-based; conditions: for MIC: MHB, 5 × 10^5 CFU/mL, 37 °C, 18 h, duplicate
Description: as §1
MIC was determined using the broth microdilution method described by Hancock with some modifications. Briefly, bacterial colonies grown from the MHA were prepared in MHB (Oxoid) as a 0.5 McFarland suspension (which is equal to 1 × 10^8 CFU/mL), and was further 200-fold diluted by the MHB (5 × 10^5 CFU/mL). The bacterial suspension (50 µL) was mixed with 2-fold serial dilutions of peptide (5.5 µL) achieving final concentrations of 256 to 1 µM using a round-bottom polypropylene (PP) 96-well plate (Greiner Bio-One). The plate was incubated at 37 °C for 18 h including incubating peptide free-bacteria as positive growth control, and MHB as negative growth control. After the incubation, the lowest concentration with no visible growth was defined as a MIC value. The assay was performed in a duplicate manner.

[4] = geometric mean over 12 clinical Salmonella isolates

FIRRIARLLRRIF-NH2 [Kn2-5R-NH2]
ACN (%) at elution, overall hydrophobicity [1]: 42.1% | GM of MBC [2, 4]: 4 µM | MBC ([2]; isolate 5 (Enteritidis)): 4 µM | MBC ([2]; isolate 7 (Typhimurium)): 4 µM | MBC ([2]; isolate 11 (I 1,4:i:-)): 4 µM | MBC ([2]; isolate 18 (Stanley)): 4 µM | MBC ([2]; isolate 26 (Typhimurium)): 4 µM | MBC ([2]; isolate 27 (Typhimurium)): 4 µM | MBC ([2]; isolate 55 (Typhimurium)): 4 µM | MBC ([2]; isolate 61 (Enteritidis)): 4 µM | MBC ([2]; isolate 69 (Typhimurium)): 4 µM | MBC ([2]; isolate 76 (Enteritidis)): 4 µM | MBC ([2]; isolate 78 (Enteritidis)): 4 µM | MBC ([2]; isolate 107 (Typhimurium)): 4 µM | MBC/MIC ratio ([2]; ≤4 bactericidal, >4 bacteriostatic, 12 clinical Salmonella isolates): 1 | HC50 (hemolytic concentration 50) (sheep red blood cells; concentration inducing 50% hemolysis of sRBCs, nonlinear regression, unit (µM)): 67.09 µM | percent hemolysis (sheep red blood cells; peptide 1 µM): 0.1% | percent hemolysis (sheep red blood cells; peptide 2 µM): 0.3% | percent hemolysis (sheep red blood cells; peptide 4 µM): 2 * % | percent hemolysis (sheep red blood cells; peptide 8 µM): 2.5% | percent hemolysis (sheep red blood cells; peptide 16 µM): 5.4% | percent hemolysis (sheep red blood cells; peptide 32 µM): 16.9% | percent hemolysis (sheep red blood cells; peptide 64 µM): 40.3% | percent hemolysis (sheep red blood cells; peptide 128 µM): 99.3% | percent hemolysis (sheep red blood cells; peptide 256 µM): 99.5% | concentration required for the initiation of hemolysis (sheep red blood cells; sRBCs, 60 min, 256–1 µM tested): 1000 nM | GM of MIC (GMMIC) [3, 4]: 4 µM | MIC ([3]; isolate 5 (Enteritidis, blood; resistant AMP, SXT, KZ)): 4 µM | MIC ([3]; isolate 7 (Typhimurium, blood; resistant AMP, CN, TE, NA, SXT)): 4 µM | MIC ([3]; isolate 11 (I 1,4:i:-, blood; resistant AMP, TE, NA, SXT, C)): 4 µM | MIC ([3]; isolate 18 (Stanley, urine; resistant TE, SXT, C)): 4 µM | MIC ([3]; isolate 26 (Typhimurium, urine; resistant TZP, TE, NA)): 4 µM | MIC ([3]; isolate 27 (Typhimurium, stool; resistant AMP, TE, NA, SXT, CIP)): 4 µM | MIC ([3]; isolate 55 (Typhimurium, blood; resistant AMP, SXT, C, TE)): 4 µM | MIC ([3]; isolate 61 (Enteritidis, blood; resistant AMP, TE, NA, SXT)): 4 µM | MIC ([3]; isolate 69 (Typhimurium, stool; resistant AMP)): 4 µM | MIC ([3]; isolate 76 (Enteritidis, CSF; resistant NA)): 4 µM | MIC ([3]; isolate 78 (Enteritidis, blood; resistant TE, CIP, NA, SXT)): 4 µM | MIC ([3]; isolate 107 (Typhimurium, stool; susceptible)): 4 µM
